In patent US11013704B2, “Compounds supports hematopoietic stem cells and red blood cells” (The Board of Regents of the University of Texas System, priority 2014, dated 2021):
Entries after “also recorded” stand apart in the source; their conditions may differ.

Legend:
[1] = test system: Bone marrow CD45.1 Lin-Sca-1+Kit+Flk2-CD34- cells; assay: Ex vivo expansion of mouse bone marrow HSCs, repopulation after transplantation; type: cell-based; conditions: cultured 8 days, determined by bone marrow transplantation
Experimental: (§1) Mouse BM Lin-Sca-1+Kit+CD34-Flk2-cells were cultured in serum-free Stemspan medium with 10 ng/ml SCF, 20 ng/ml TPO, and indicated concentrations of SA. Cell numbers were counted after 6 days. FIG. 2B The effects of SA on the ex vivo expansion of mouse CD45.1 Percent repopulation of C57BL/6 bone marrow HSCs at 0, 10 nM, 100 nM, and 1 μM for 8 days, measured at 3 weeks, 7 weeks, and 16 weeks post-transplantation. The repopulation of donor mouse CD45.1 HSCs was determined by transplantation into lethally irradiated (1000 rad) CD45.2 C57BL/6 mice. Ten thousand CD45.2 total bone marrow cells were co-transplanted as competitors. n=5. […] The repopulation of human hematopoietic stem cells was determined by transplantation into sublethally irradiated (250 rad) NOD/SCID IL2R gamma^−/− (NSG) mice. n=7.
Bone marrow CD45.1 Lin^−Sca-1^+Kit^+Flk2^−CD34^− cells were isolated from 8-12 week old CD45.1 C57BL/6 mice and were plated into wells of a U-bottom 96-well plate (3799; Corning). StemSpan serum-free medium (StemCell Technologies) supplemented with 10 μg/mL heparin (Sigma), 10 ng/mL mouse SCF (R&D Systems), 20 ng/mL mouse TPO (R&D Systems), and 10 ng/mL human FGF-1 (Invitrogen), and indicated concentration of suberoylarginine was used. Cells were cultured at 37° C. in 5% CO2 and the normal level of O2 for 8 days. […]

[2] = test system: human cord blood CD133+ cells; assay: Ex vivo expansion of human cord blood HSCs, repopulation in NSG mice; type: cell-based; conditions: cord blood CD133+ cells cultured 11 days, 1 μM, 8 weeks post-transplantation
Experimental: as §1
Cryopreserved human cord blood CD133^+ cells were purchased from AllCells. All of cells were from pooled donors. Purities of CD133^+ cells as analyzed by flow cytometry were higher than 90%. After thawing, the cell viability tested by trypan blue exclusion was higher than 72%. […] Eight weeks after transplantation, bone marrow nucleated cells from transplanted animals were analyzed by flow cytometry for the presence of human cells. Total human hematopoietic cells were determined as CD45/71^+, and human myeloid cells as myeloid CD45/71^+CD15/66b^+.

Balb/c mice [3] = assay: Mouse model of bone marrow failure after chemo- and radio-treatment; type: in vivo
Experimental: (§2) Balb/c mice were first treated with 100 mg/kg acetylphenylhydrazine and, after 24 hours, were irradiated with 2 Gy. Two days post radiation treatment, the mice were treated with 62.5 mg/kg cyclophosphamide (CY). This treatment is known to induce sublethal damage to HSCs and RBCs. Two days after the CY treatment, the mice were given daily intraperitoneal injections of SA for 4 to 14 days; a range of SA concentrations was evaluated. Blood counts were measured at days 0, 4, and 8. Additionally, bone marrow Lin^−Sca-1^+Kit^+CD34^−Flk2^− (LSKFC) cells that are enriched for HSCs and hematopoietic lineages were quantified at day 14.
as §2, with “The inventors tested the effect of SA on HSCs and RBCs in a mouse bone marrow failure model after chemo- and radio-therapy. In this model, Balb/c mice” for “Balb/c mice”, “for HSCs (Christensen and Weissman, 2001) and hematopoietic” for “for HSCs and hematopoietic”

Stability test in plasma = type: in vitro ADME; conditions: 2 μM, mouse plasma, 37° C., 0-1440 min
Experimental: (§3) SA (2 μM) was incubated with murine S9 (Lot KWB) and Phase I NADPH Regenerating System cofactors for 0-240 minutes. SA was quantified using a Qtrap 3200 mass spectrometer. n=3. (FIG. 7B) SA is stable in mouse plasma. 1 μl SA 2 mM DMSO stock was incubated with 1 ml ACD mouse plasma or saline making 2 μM SW125991 working solution. Vortext well and incubate in 37° C. water bath. At time point 0, 10, 30, 60, 120, 240, 1440 min, SA was quantified using a Qtrap 3200 mass spectrometer. n=3.
1 μl of SA (2 mM DMSO stock) was incubated with 1 ml ACD mouse plasma or saline control to make 2 μM SW125991 working solution. Vortext well and incubate in 37° C. water bath. At time point 0, 10, 30, 60, 120, 240, 1440 min, 100 μl sample was crashed by 200 μl MeOH with IS benzylbenzamide at 15 ng/ml. Centrifuge twice at 13200 rpm for 5 min, and supernatant was injected into LCMS for analysis.

[4] = Stability test in S9 extract; type: in vitro ADME, mouse; conditions: 2 μM, murine S9, Phase I NADPH cofactors, 0-240 minutes
Experimental: as §3
SA (2 mM in H2O stock, final concentration in mixture is 2 μM) was incubated with Murine S9 (Lot KWB) fraction and Phase I (NADPH Regenerating System) cofactors for 0-240 minutes. Reactions were quenched with 1 mL (1:1) of methanol containing 0.2% formic acid, and 100 ng/ml IS (IS final conc.=10 ng/ml). Samples were vortexed for 15 seconds, incubated at RT for 10 minutes and spun for 5 minutes at 2400 rpm. Supernatant (1 mL) was then transferred to an eppendorf tube and spun in a table top, chilled centrifuge for 5 minutes at 13.2K rpm. Supernatant (800 μl) was transferred to an HPLC vial (w/out insert). Analyzed by Qtrap 3200 mass spectrometer.

[5] = test system: Mouse bone marrow Lin-Sca-1+Kit+CD34-Flk2-cells; assay: Proliferation of mouse HSCs; type: cell-based; conditions: serum-free Stemspan, 10 ng/ml SCF, 20 ng/ml TPO, cell numbers after 6 days
Experimental: as §1
Mouse bone marrow Lin-Sca-1+Kit+CD34-Flk2-cells were cultured in serum-free Stemspan medium with 10 ng/ml SCF, 20 ng/ml TPO, and indicated concentrations of SA. Cell numbers were counted after 6 days.

Balb/c mice [6] = assay: Toxicity in mice, daily injections for 28 days; type: in vivo, mouse; conditions: for toxicity: 0.5 and 1.5 mg daily for four weeks (33- and 100-times the effective amount)
Experimental: In this experiment, 8-week-old Balb/c mice were given daily injections of SA at doses of 0, 0.5, and 1.5 mg per mouse for 28 days. The body weight and activities of mice were monitored daily.

[7] = 0.5 and 1.5 mg per mouse daily for 28 days

In the case of `N=C(N)NCCC[C@H](NC(=O)CCCCCCC(=O)O)C(=O)O` [SA, suberoyl arginine], the “ex vivo expansion of mouse HSCs” value [1] is reported as “supports the ex vivo expansion”, the “ex vivo expansion of human HSCs” value [2] is reported as “supports the ex vivo expansion” and the “increase of phenotypic bone marrow HSCs” value (Balb/c mice [3]; 15 μg of SA per mouse (~0.7 mg/kg) per day for 14 days) is reported as about 40%. The “increase of hematocrit relative to animals not treated” value (Balb/c mice [3]; day 8) was 25-30%, the “increase of hemoglobin relative to animals not treated” value (Balb/c mice [3]; day 8) was 25-30% and the “increase of level of RBCs relative to animals not treated” value (Balb/c mice [3]; day 8) was 25-30%. For the same compound, the “stimulation of hematopoietic recovery by route” value (Balb/c mice [3]; iv or intraperitoneal (ip) administration) was “works efficiently”, the “effect on RBC recovery compared with EPO” value (Balb/c mice [3]; same mouse model, SA 15 μg, EPO 120 U/kg) was “comparable to that of EPO” and the stability in plasma (Stability test in plasma) was “metabolically stable”. The “metabolic stability in S9 liver fractions” value [4] was “metabolically stable”, the “proliferation of mouse HSCs” value [5] was “promoted the proliferation; also recorded: promotes proliferation” and the toxicity (Balb/c mice [6]) was “did not observe any detectable SA toxicity”. The toxicity (Balb/c mice [6]; listed as subreoylarginine) was “no detectable toxicity”, the body weight (Balb/c mice [6]; [7]) was “did not significantly alter” and the “changes in behavior, activity, hematology, serum chemistry, or urinalysis parameters” value (Balb/c mice [6]; [7]) was “did not observe any changes”. The “histological damage to tissues/organs” value (Balb/c mice [6]; [7]) was “no damage was observed” and the body weight (Balb/c mice [6]; 0.5 and 1.5 mg per mouse daily for 28 days, listed as suberoylarginine) was “No significant change”.
